According to patent US10150757B2, “Quinazolinone derivatives as PARP inhibitors” (Janssen Pharmaceutica NV, priority 2004, dated 2018):

Target: PARP-1 enzyme (Homo sapiens, UniProt P09874)
Experiment: In vitro scintillation proximity assay (SPA) for PARP-1 inhibitory activity
Format: biochemical
Conditions: [3H]-NAD+, biotinylated histones, nicked DNA; read-out: in vitro SPA assay PARP-1 pIC50 (converted)
Procedure: In Vitro Scintillation Proximity Assay (SPA) for PARP-1 Inhibitory Activity
Compounds of the present invention were tested in an in vitro assay based on SPA technology (proprietary to Amersham Pharmacia Biotech).
In principle, the assay relies upon the well established SPA technology for the detection of poly(ADP-ribosyl)ation of biotinylated target proteins, i.e histones. This ribosylation is induced using nicked DNA activated PARP-1 enzyme and [^3H]-nicotinamide adenine dinucleotide ([^3H]-NAD^+) as ADP-ribosyl donor.
As inducer of PARP-1 enzyme activity, nicked DNA was prepared. For this, 25 mg of DNA (supplier: Sigma) was dissolved in 25 ml DNAse buffer (10 mM Tris-HCl, pH 7.4; 0.5 mg/ml Bovine Serum Albumine (BSA); 5 mM MgCl2.6H2O and 1 mM KCl) to which 50 μl DNAse solution (1 mg/ml in 0.15M NaCl) was added. After an incubation of 90 min. at 37° C., the reaction was terminated by adding 1.45 g NaCl, followed by a further incubation at 58° C. for 15 min. The reaction mixture was cooled on ice and dialysed at 4° C. for respectively 1.5 and 2 hours against 1.5 l of 0.2M KCl, and twice against 1.5 l of 0.01M KCl for 1.5 and 2 h respectively. The mixture was aliquoted and stored at −20° C. Histones (1 mg/ml, type II-A, supplier: Sigma) were biotinylated using the biotinylation kit of Amersham and stored aliquoted at −20° C. A stock solution of 100 mg/ml SPA poly(vinyl toluene) (PVT) beads (supplier: Amersham) was made in PBS. A stock solution of [^3H]-NAD^+ was made by adding 120 μl of [^3H]-NAD^+ (0.1 mCi/ml, supplier: NEN) to 6 ml incubation buffer (50 mM Tris/HCl, pH 8; 0.2 mM DTT; 4 mM MgCl2). A solution of 4 mM NAD^+ (supplier: Roche) was made in incubation buffer (from a 100 mM stock solution in water stored at −20° C.). The PARP-1 enzyme was produced using art known techniques, i.e. cloning and expression of the protein starting from human liver cDNA. Information concerning the used protein sequence of the PARP-1 enzyme including literature references can be found in the Swiss-Prot database under primary accession number P09874. Biotinylated histones and PVT-SPA beads were mixed and pre-incubated for 30 min. at room temperature. PARP-1 enzyme (concentration was lot dependent) was mixed with the nicked DNA and the mixture was pre-incubated for 30 min. at 4° C. Equal parts of this histones/PVT-SPA beads solution and PARP-1 enzyme/DNA solution were mixed and 75 μl of this mixture together with 1 μl of compound in DMSO and 25 μl of [^3H]-NAD^+ was added per well into a 96-well microtiterplate. The final concentrations in the incubation mixture were 2 μg/ml for the biotinylated histones, 2 mg/ml for the PVT-SPA beads, 2 μg/ml for the nicked DNA and between 5-10 μg/ml for the PARP-1 enzyme. After incubation of the mixture for 15 min. at room temperature, the reaction was terminated by adding 100 μl of 4 mM NAD^+ in incubation buffer (final concentration 2 mM) and plates were mixed.
The beads were allowed to sediment for at least 15 min. and plates transferred to a TopCountNXT™ (Packard) for scintillation counting, values were expressed as counts per minute (cpm). For each experiment, controls (containing PARP-1 enzyme and DMSO without compound), a blank incubation (containing DMSO but no PARP-1 enzyme or compound) and samples (containing PARP-1 enzyme and compound dissolved in DMSO) were run in parallel. All compounds tested were dissolved and eventually further diluted in DMSO. In first instance, compounds were tested at a concentration of 10^−5M. […] In each test, the blank value was subtracted from both the control and the sample values. The control sample represented maximal PARP-1 enzyme activity. For each sample, the amount of cpm was expressed as a percentage of the mean cpm value of the controls. […] Herein the effects of test compounds are expressed as pIC50 (the negative log value of the IC50-value).

Sequence of PARP-1 enzyme (P09874 whole entry): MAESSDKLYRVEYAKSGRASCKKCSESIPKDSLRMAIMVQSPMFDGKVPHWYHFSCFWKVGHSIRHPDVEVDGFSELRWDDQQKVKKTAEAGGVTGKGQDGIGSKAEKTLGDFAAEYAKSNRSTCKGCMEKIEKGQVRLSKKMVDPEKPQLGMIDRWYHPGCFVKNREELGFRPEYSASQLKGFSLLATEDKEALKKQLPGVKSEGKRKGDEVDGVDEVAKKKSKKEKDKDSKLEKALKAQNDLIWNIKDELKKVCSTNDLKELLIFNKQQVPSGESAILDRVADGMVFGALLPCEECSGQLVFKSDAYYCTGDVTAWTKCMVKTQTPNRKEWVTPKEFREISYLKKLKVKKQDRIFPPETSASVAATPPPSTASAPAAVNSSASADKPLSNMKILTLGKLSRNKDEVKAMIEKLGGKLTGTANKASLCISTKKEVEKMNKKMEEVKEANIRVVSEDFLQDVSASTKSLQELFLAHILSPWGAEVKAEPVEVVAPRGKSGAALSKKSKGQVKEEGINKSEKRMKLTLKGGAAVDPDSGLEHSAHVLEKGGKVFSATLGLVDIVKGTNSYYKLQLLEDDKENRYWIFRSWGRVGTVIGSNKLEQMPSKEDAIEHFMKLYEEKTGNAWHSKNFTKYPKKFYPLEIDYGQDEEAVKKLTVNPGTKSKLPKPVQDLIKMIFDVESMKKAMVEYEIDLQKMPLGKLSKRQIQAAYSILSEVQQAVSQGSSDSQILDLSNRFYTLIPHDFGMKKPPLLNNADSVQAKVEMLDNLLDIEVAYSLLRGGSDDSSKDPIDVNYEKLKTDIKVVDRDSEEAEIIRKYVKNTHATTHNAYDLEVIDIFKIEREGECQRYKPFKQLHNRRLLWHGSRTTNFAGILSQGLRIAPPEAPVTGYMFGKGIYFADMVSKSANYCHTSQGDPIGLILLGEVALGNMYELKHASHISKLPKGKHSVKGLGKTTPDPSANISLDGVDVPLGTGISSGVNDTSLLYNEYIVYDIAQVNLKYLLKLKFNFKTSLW

IC50	Structure (SMILES)
44.5 nM	O=c1[nH]c(NCCN2CCN(c3n[nH]c4cc(F)ccc34)CC2)nc2ccccc12 [Compound 41]
12.4 nM	Cc1ccc2nc(NCCN3CCN(c4n[nH]c5ccccc45)CC3)[nH]c(=O)c2c1 [Compound 43]
841 nM	O=c1[nH]c(NCCCN2CCC(Nc3cccc4ccccc34)CC2)nc2ccccc12 [Compound 42]
225 nM	Nc1c(Cl)cc(C(=O)NC2CCN(CCCNc3nc(O)c4ccccc4n3)CC2)c2c1CCO2 [Compound 45]
424 nM	O=c1[nH]c(NCCN2CCN(c3nc4ccccc4c(=O)[nH]3)CC2)nc2ccccc12 [Compound 38]
10.8 nM	O=c1[nH]c(NCCN2CCC(c3n[nH]c4cc(F)ccc34)CC2)nc2ccc(Cl)cc12 [Compound 36]
15.3 nM	Cc1ccc2nc(NCCN3CCC(c4n[nH]c5cc(F)ccc45)CC3)[nH]c(=O)c2c1 [Compound 37]
34.8 nM	O=c1[nH]c(NCCN2CCC(Nc3n[nH]c(=O)c4ccccc34)CC2)nc2ccccc12 [Compound 33]
322 nM	O=c1nc(NCCCN2CCC(Nc3nccc4ccccc34)CC2)[nH]c2ccccc12 [Compound 40]
39.4 nM	O=c1[nH]c(NCCN2CCC(c3n[nH]c4cc(F)ccc34)CC2)nc2cc(Cl)ccc12 [Compound 31]
29.3 nM	O=c1[nH]c(NCCN2CCN(c3n[nH]c4ccccc34)CC2)nc2cc(Cl)ccc12 [Compound 44]
9.93 nM	Cc1cccc2nc(NCCN3CCN(c4n[nH]c5ccccc45)CC3)[nH]c(=O)c12 [Compound 39]
231 nM	O=C(c1ccc(F)cc1)C1CCN(CCNc2nc3ccccc3c(=O)[nH]2)CC1 [Compound 46]

Further lines, the molecule ahead of its results:

Structure (SMILES)	IC50
O=c1[nH]c(NCCCN2CCN(c3nsc4ccccc34)CC2)nc2ccccc12 [Compound 24]	785 nM
Nc1c(Cl)cc(C(=O)OCC2CCN(CCNc3nc4ccccc4c(=O)[nH]3)CC2)c2c1OCCO2 [Compound 7]	592 nM
O=c1[nH]c(NCCCN2CCC(n3c(=O)[nH]c4ccccc43)CC2)nc2ccccc12 [Compound 29]	785 nM
CCCCn1cc(C2CCN(CCCNc3nc4ccccc4c(=O)[nH]3)CC2)c2ccccc21 [Compound 28]	1490 nM
CCc1cc2cc(CN3CCN(CCNc4nc5ccccc5c(=O)[nH]4)CC3)ccc2nc1OC [Compound 3]	535 nM
CO[C@H]1CN(CCCNc2nc3ccccc3c(=O)[nH]2)CC[C@H]1NC(=O)c1cc(Cl)cc2c1OC(C)(C)C2 [Compound 18]	847 nM
O=c1[nH]c(NCCCN2CCC(O)(c3ccc(Cl)cc3)CC2)nc2ccccc12 [Compound 2]	133 nM
O=c1[nH]c(NCCCN2CCC(c3noc4cc(F)ccc34)CC2)nc2ccccc12 [Compound 26]	425 nM
O=c1[nH]c(NCCCN2CCC(c3c[nH]c4ccccc34)CC2)nc2ccccc12 [Compound 20]	675 nM
O=c1[nH]c(NCCN2CCC(c3n[nH]c4cc(F)ccc34)CC2)nc2ccccc12 [Compound 21]	25.5 nM
O=c1[nH]c(NCCN2CCN(c3n[nH]c4ccccc34)CC2)nc2ccc(Cl)cc12 [Compound 1]	7.76 nM
O=c1[nH]c(NCCCN2CCC(c3n[nH]c4cc(F)ccc34)CC2)nc2ccccc12 [Compound 25]	190 nM
O=c1[nH]c(NCCCN2CCN(c3n[nH]c4ccccc34)CC2)nc2ccccc12 [Compound 22]	46.3 nM
O=c1[nH]c(NCCN2CCC(Nc3nc4ccccc4c(=O)[nH]3)CC2)nc2ccccc12 [Compound 30]	32.3 nM
O=C(NC1CCN(CCCNc2nc3ccccc3c(=O)[nH]2)CC1)c1ccccc1 [Compound 23]	687 nM
CO[C@@H]1CN(CCCNc2nc(O)c3ccccc3n2)CC[C@@H]1NC(=O)c1cc(Cl)c(N)c2c1OCCC2 [Compound 6]	387 nM
O=c1[nH]c(NCCCN2CCN(c3n[nH]c4cc(F)ccc34)CC2)nc2ccccc12 [Compound 27]	44.4 nM
CC1(C)Cc2c(N)c(Cl)cc(C(=O)NC3CCN(CCCCNc4nc(O)c5ccccc5n4)CC3)c2O1 [Compound 5]	638 nM
CO[C@@H]1CN(CCCNc2nc(O)c3ccccc3n2)CCN1NC(=O)c1cc(Cl)c(N)c2c1OC(C)(C)C2 [Compound 8]	535 nM
CC1(C)Cc2c(N)c(Cl)cc(C(=O)NC3CCN(CCCNc4nc(O)c5ccccc5n4)CC3)c2O1 [Compound 4]	718 nM
